Laboratory results reported in ChEMBL document CHEMBL3885881, “DrugMatrix”.

Organism: Rattus norvegicus
Experiment: DrugMatrix - Regimen: Daily Repeat
Assay type: toxicity, organism-based, Sprague-Dawley
Set-up: regimen Daily Repeat, gender Male, age 6-8 weeks
Conditions: in vivo, po, route oral GAVAGE, vehicle .5 % CMC; for ABSOLUTE BASOPHIL / ABSOLUTE EOSINOPHIL / ABSOLUTE LYMPHOCYTE / ABSOLUTE MONOCYTE / ABSOLUTE SEGMENTED NEUTROPHIL / BASOPHIL / EOSINOPHIL / ERYTHROCYTE COUNT / HEMATOCRIT / HEMOGLOBIN / LEUKOCYTE COUNT / LYMPHOCYTE / MEAN CORPUSCULAR HEMOGLOBIN / MEAN CORPUSCULAR HEMOGLOBIN CONCENTRATION / MEAN CORPUSCULAR VOLUME / MONOCYTE / NEUTROPHIL / NUCLEATED RED BLOOD CELLS / PLATELET COUNT: tissue Blood; for ALANINE AMINOTRANSFERASE / ALBUMIN / ALKALINE PHOSPHATASE / ASPARTATE AMINOTRANSFERASE / BLOOD UREA NITROGEN / CARBON DIOXIDE / CHLORIDE / CHOLESTEROL / CREATINE PHOSPHOKINASE / CREATININE / GLUCOSE / LACTATE DEHYDROGENASE / LIPASE / PHOSPHORUS / POTASSIUM / SODIUM / TOTAL BILIRUBIN / TOTAL PROTEIN / URIC ACID: tissue Plasma
[1] = 100 mg/kg, 120 h, dose level Low, time 5 day
[2] = 2500 mg/kg, 72 h, dose level High, time 3 day
[3] = 2500 mg/kg, 120 h, dose level High, time 5 day

COC1=C(OC)C(=O)C(CCCCCCCCCCO)=C(C)C1=O [IDEBENONE]
ABSOLUTE BASOPHIL [1]: 0 CELLS/uL | ABSOLUTE EOSINOPHIL [1]: 0 CELLS/uL | ABSOLUTE LYMPHOCYTE [1]: 14055 CELLS/uL | ABSOLUTE MONOCYTE [1]: 144.33 CELLS/uL | ABSOLUTE SEGMENTED NEUTROPHIL [1]: 1000.67 CELLS/uL | BASOPHIL [1]: 0% | EOSINOPHIL [1]: 0% | ERYTHROCYTE COUNT [1]: 5.62 x10E6/uL | HEMATOCRIT [1]: 35.7% | HEMOGLOBIN [1]: 14.47 G/DL | LEUKOCYTE COUNT [1]: 15.2 x10E3/uL | LYMPHOCYTE [1]: 92.33% | MEAN CORPUSCULAR HEMOGLOBIN [1]: 25.8 pg | MEAN CORPUSCULAR HEMOGLOBIN CONCENTRATION [1]: 40.57 G/DL | MEAN CORPUSCULAR VOLUME [1]: 63.63 fL | MONOCYTE [1]: 1% | NEUTROPHIL [1]: 6.67% | NUCLEATED RED BLOOD CELLS [1]: 0.33 /100WBC | PLATELET COUNT [1]: 1018.67 x10E3/uL | ALANINE AMINOTRANSFERASE [1]: 63.67 u/L | ALBUMIN [1]: 4.47 G/DL | ALKALINE PHOSPHATASE [1]: 410 u/L | ASPARTATE AMINOTRANSFERASE [1]: 93 u/L | BLOOD UREA NITROGEN [1]: 16 mg/dL | CARBON DIOXIDE [1]: 32.33 mmol/L | CHLORIDE [1]: 102.67 MEQ/L | CHOLESTEROL [1]: 71.67 mg/dL | CREATINE PHOSPHOKINASE [1]: 369.33 u/L | CREATININE [1]: 0.13 mg/dL | GLUCOSE [1]: 152.33 mg/dL | LACTATE DEHYDROGENASE [1]: 136 u/L | LIPASE [1]: 10.33 u/L | PHOSPHORUS [1]: 11.63 mg/dL | POTASSIUM [1]: 6.29 MEQ/L | SODIUM [1]: 145.4 MEQ/L | TOTAL BILIRUBIN [1]: 0.13 mg/dL | TOTAL PROTEIN [1]: 6.13 G/DL | URIC ACID [1]: 1.03 mg/dL | ABSOLUTE BASOPHIL [2]: 0 CELLS/uL | ABSOLUTE EOSINOPHIL [2]: 0 CELLS/uL | ABSOLUTE LYMPHOCYTE [2]: 12762.67 CELLS/uL | ABSOLUTE MONOCYTE [2]: 85.33 CELLS/uL | ABSOLUTE SEGMENTED NEUTROPHIL [2]: 1385.33 CELLS/uL | BASOPHIL [2]: 0% | EOSINOPHIL [2]: 0% | ERYTHROCYTE COUNT [2]: 5.73 x10E6/uL | HEMATOCRIT [2]: 36.83% | HEMOGLOBIN [2]: 14 G/DL | LEUKOCYTE COUNT [2]: 14.23 x10E3/uL | LYMPHOCYTE [2]: 89.33% | MEAN CORPUSCULAR HEMOGLOBIN [2]: 24.43 pg | MEAN CORPUSCULAR HEMOGLOBIN CONCENTRATION [2]: 38 G/DL | MEAN CORPUSCULAR VOLUME [2]: 64.3 fL | MONOCYTE [2]: 0.67% | NEUTROPHIL [2]: 10% | NUCLEATED RED BLOOD CELLS [2]: 0.33 /100WBC | PLATELET COUNT [2]: 1207.33 x10E3/uL | ALANINE AMINOTRANSFERASE [2]: 63.67 u/L | ALBUMIN [2]: 4.23 G/DL | ALKALINE PHOSPHATASE [2]: 312.33 u/L | ASPARTATE AMINOTRANSFERASE [2]: 80.67 u/L | BLOOD UREA NITROGEN [2]: 13.67 mg/dL | CARBON DIOXIDE [2]: 32.33 mmol/L | CHLORIDE [2]: 103.67 MEQ/L | CHOLESTEROL [2]: 71.33 mg/dL | CREATINE PHOSPHOKINASE [2]: 242.67 u/L | CREATININE [2]: 0.15 mg/dL | GLUCOSE [2]: 157.67 mg/dL | LACTATE DEHYDROGENASE [2]: 80.67 u/L | LIPASE [2]: 11 u/L | PHOSPHORUS [2]: 10.1 mg/dL | POTASSIUM [2]: 6.3 MEQ/L | SODIUM [2]: 144.83 MEQ/L | TOTAL BILIRUBIN [2]: 0.17 mg/dL | TOTAL PROTEIN [2]: 5.33 G/DL | URIC ACID [2]: 1.27 mg/dL | ABSOLUTE BASOPHIL [3]: 0 CELLS/uL | ABSOLUTE EOSINOPHIL [3]: 79.33 CELLS/uL | ABSOLUTE LYMPHOCYTE [3]: 11851 CELLS/uL | ABSOLUTE MONOCYTE [3]: 40.67 CELLS/uL | ABSOLUTE SEGMENTED NEUTROPHIL [3]: 1262.33 CELLS/uL | BASOPHIL [3]: 0% | EOSINOPHIL [3]: 0.67% | ERYTHROCYTE COUNT [3]: 5.54 x10E6/uL | HEMATOCRIT [3]: 33.87% | HEMOGLOBIN [3]: 13.77 G/DL | LEUKOCYTE COUNT [3]: 13.23 x10E3/uL | LYMPHOCYTE [3]: 89.33% | MEAN CORPUSCULAR HEMOGLOBIN [3]: 24.87 pg | MEAN CORPUSCULAR HEMOGLOBIN CONCENTRATION [3]: 40.67 G/DL | MEAN CORPUSCULAR VOLUME [3]: 61.17 fL | MONOCYTE [3]: 0.33% | NEUTROPHIL [3]: 9.67% | NUCLEATED RED BLOOD CELLS [3]: 0 /100WBC | PLATELET COUNT [3]: 1402 x10E3/uL | ALANINE AMINOTRANSFERASE [3]: 63 u/L | ALBUMIN [3]: 4.47 G/DL | ALKALINE PHOSPHATASE [3]: 280.33 u/L | ASPARTATE AMINOTRANSFERASE [3]: 108 u/L | BLOOD UREA NITROGEN [3]: 18.33 mg/dL | CARBON DIOXIDE [3]: 30 mmol/L | CHLORIDE [3]: 101.33 MEQ/L | CHOLESTEROL [3]: 63.33 mg/dL | CREATINE PHOSPHOKINASE [3]: 512 u/L | CREATININE [3]: 0.19 mg/dL | GLUCOSE [3]: 146.67 mg/dL | LACTATE DEHYDROGENASE [3]: 149.33 u/L | LIPASE [3]: 8.67 u/L | PHOSPHORUS [3]: 9.97 mg/dL | POTASSIUM [3]: 6.03 MEQ/L | SODIUM [3]: 145.03 MEQ/L | TOTAL BILIRUBIN [3]: 0.23 mg/dL | TOTAL PROTEIN [3]: 6.1 G/DL | URIC ACID [3]: 0.9 mg/dL
